# Data: patent US20030158250A1, “Agents correcting gene expression regulatory error” (priority 2000, published 2003)
# Assays:
# Assay type in all cases: cell-based
# [1] = system: transketolase (TK); test: RT-PCR expression level of TK gene in monocytes; details: human monocytes, 30 PCR cycles
# Description: (§1) Four-hundred milliliters of blood was collected from a human normal individual donor. The collected blood was diluted 2-folds with PBS(−), overlaid on Ficoll-paque (manufactured by Pharmacia), and centrifuged at 500×g for 20 minutes. The peripheral blood mononuclear cells (PBMCs) in the intermediate layer was collected with a pipette, and washed with RPMI 1640 medium (manufactured by Bio Whittaker). The collected PBMCs was suspended in a storage solution of 90% FCS (manufactured by JRH Biosciences)/10% dimethyl sulfoxide, and stored in liquid nitrogen. During the experiment, these stored PBMCs were rapidly melted in water bath at 37° C., and washed with RPMI 1640 medium containing 10 μg/ml Dnase (manufactured by Calbiochem). Thereafter, the number of living cells was calculated by trypan blue staining method, and subjected to each experiment.
# (§2) PBMCs were suspended in RPMI 1640 medium containing 5% human serum of blood type-AB, 0.1 mM nonessential amino acid, 1 mM sodium pyruvate, 2 mM L-glutamine (hereinabove manufactured by Bio Whittaker), 10 mM HEPES (manufactured by nakalai tesque), and 1% streptomycin-penicillin (manufactured by Gibco BRL) (hereinafter simply referred to as “5HRPMI medium”) so as to have a concentration of 4×10^6 cells/ml. Thereafter, the suspension was spread on a 6-well cell culture plate (manufactured by Falcon) in a volume of 3 ml/well, and the cells were incubated in a wet-type incubator at 37° C. and 5% CO2 for 1.5 hours. After 1.5 hours, the non-adherent cells were removed by suction, and each well was washed with RPMI 1640 medium, and 2 ml of the 5HRPMI medium was added to the wells, to give monocytes.
# (§3) To the monocytes obtained above was added in each well 8 μl of an aqueous DGE solution, or 8 μl of water as a control, and the cells were incubated in a wet-type incubator at 37° C. and 5% CO2 for 5 hours. Thereafter, with addition of 2 μl of a 1 μg/ml aqueous LPS solution or 2 μl of a 25 μM TPA dimethyl sulfoxide solution to each well, or with addition of neither of these substances thereto, the cells were cultured for additional 4 hours. Thereafter, RNA was prepared from each cell in accordance with the description of the kit using RNeasy Mini Kit (manufactured by QIAGEN, 74104). The group with addition of water alone or the aqueous DGE solution alone to the cells was set as a negative control, and the group with addition of water and the aqueous LPS solution or the aqueous TPA solution to the cells was set as a positive control.
# (§4) A liquid mixture having a total volume of 60 μl of 0.5 μg of RNA prepared above, 10 mM Tris-HCl (pH 8.3), 50 mM KCl, 5 mM MgCl2, 1 mM dNTP mixtures, 150 pmol of Random 6 mers, 60 U Ribonuclease Inhibitor (manufactured by Takara Shuzo Co., Ltd., 2310A), and 15 U Reverse Transcriptase XL (AMV) (manufactured by Takara Shuzo Co., Ltd., 2620A) were incubated at 30° C. for 10 minutes and thereafter at 42° C. for 1 hour using a thermal cycler (GeneAmp PCR System 9600, manufactured by Applied Biosystems), and the mixture was heated at 99° C. for 5 minutes to deactivate the enzyme, to give cDNA.
# (§5) Oligonucleotide primers for reaction of PCR were designed based on mRNA nucleotide sequence of each gene listed in the following tables, and synthesized in the same manner as above. In Tables 4 and 5, each gene evaluated in this Example, GenBank Accession NO, the name of oligonucleotide primers and SEQ ID NOs of the primers in Sequence Listing were listed. […]
# [2] = system: tumor necrosis factor α (TNFα); test: RT-PCR expression level of TNFα gene in monocytes; details: human monocytes, 30 PCR cycles
# Description: as §1, §2, §3, §4, §5
# [3] = system: liver and activation-regulated chemokine (LARC); test: RT-PCR expression level of LARC gene in monocytes; details: human monocytes, 30 PCR cycles
# Description: as §1, §2, §3, §4, §5
# [4] = system: SCO (cytochrome oxidase deficient, yeast) homolog-2 (SCO2); test: RT-PCR expression level of SCO2 gene in monocytes; details: human monocytes, 30 PCR cycles
# Description: as §1, §2, §3, §4, §5
# [5] = system: matrix metalloproteinase-9 (MMP-9); test: RT-PCR expression level of MMP-9 gene in monocytes; details: human monocytes, 30 PCR cycles
# Description: as §1, §2, §3, §4, §5
# [6] = system: interferon-inducible protein p78 (IFNp78); test: RT-PCR expression level of IFNp78 gene in monocytes; details: human monocytes, 30 PCR cycles
# Description: as §1, §2, §3, §4, §5
# [7] = system: macrophage inflammatory protein-1-β (MIP1β); test: RT-PCR expression level of MIP1β gene in monocytes; details: human monocytes, 30 PCR cycles
# Description: as §1, §2, §3, §4, §5
# [8] = system: COX2 mRNA; test: RT-PCR of COX2 mRNA in monocytes; details: human monocytes; for amplification of band ascribed to COX2 mRNA, stimulant alone: LPS or TPA alone, 4 hours, RT-PCR
# Description: as §1, §2
# as §3, with “control. […]” for “control.”
# [9] = system: macrophage inflammatory protein-2-β (MIP2β); test: RT-PCR expression level of MIP2β gene in monocytes; details: human monocytes, 30 PCR cycles
# Description: as §1, §2, §3, §4, §5
# [10] = system: macrophage-derived chemokine (MDC); test: RT-PCR expression level of MDC gene in monocytes; details: human monocytes, 30 PCR cycles
# Description: as §1, §2, §3, §4, §5
# [11] = substance added alone, Con. (water) +/−
# [12] = substance added alone, Con. (water) +
# [13] = substance added alone, Con. (water) −
# [14] = T + D: DGE and TPA, TPA alone −
# [15] = L + D: DGE and LPS, LPS alone ++
# [16] = T + D: DGE and TPA, TPA alone +
# [17] = L + D: DGE and LPS, LPS alone +++
# [18] = T + D: DGE and TPA, TPA alone ++
# [19] = L + D: DGE and LPS, LPS alone −
Compound,"expression level of TK gene [1, 11]","expression level of TNFα gene [2, 11]","expression level of LARC gene [3, 11]","expression level of SCO2 gene [4, 12]","expression level of MMP-9 gene [5, 13]","expression level of IFNp78 gene [6, 12]","expression level of MIP1β gene [7, 12]","amplification of band ascribed to COX2 mRNA, stimulant alone [8]","expression level of MIP2β gene [9, 12]","expression level of MDC gene [10, 13]",other results
"lipopolysaccharide [LPS, reference compound]",+/−,++,+++,−,−,++,+++,induction,++,+,
"O=C1C=CC(CO)OC1O [DGE, L-glycero-1,5-epoxy-1αβ,6-dihydroxy-cis-hex-3-en-2-one]",+/−,−,+/−,+,−,+/−,+/−,,+,−,"expression level of TK gene ([1]; L + D: DGE and LPS, LPS alone +/−): +; expression level of TK gene [1, 14]: +; expression level of TNFα gene [2, 15]: +/−; expression level of TNFα gene [2, 16]: +/−; expression level of LARC gene [3, 17]: +; expression level of LARC gene [3, 18]: +; expression level of SCO2 gene [4, 19]: +; expression level of SCO2 gene [4, 16]: +; expression level of MMP-9 gene [5, 19]: −; expression level of MMP-9 gene [5, 16]: −; expression level of IFNp78 gene [6, 15]: −; expression level of IFNp78 gene [6, 16]: +/−; expression level of MIP1β gene [7, 17]: +/−; expression level of MIP1β gene [7, 18]: +/−; induction of COX2 mRNA by LPS, effect of DGE ([8]; DGE 5 hours, then LPS 4 hours, RT-PCR band): inhibited; induction of COX2 mRNA by TPA, effect of DGE ([8]; DGE 5 hours, then TPA 4 hours, RT-PCR band): inhibited; expression level of MIP2β gene [9, 15]: +; expression level of MIP2β gene [9, 18]: +; expression level of MDC gene ([10]; L + D: DGE and LPS, LPS alone +): −; expression level of MDC gene [10, 14]: −"
"12-o-tetradecanoylphorbol 13-acetate [TPA, reference compound]",−,+,++,+,+,+,++,induction,++,−,
